# Patent US10166218B2, “3-(1H-indol-2-yl)-1H-pyrazolo[3,4-C]pyridines and therapeutic uses thereof” (Samumed, LLC, priority 2015, dated 2019)
# Columns and labels:
# Format in all cases: cell-based
# [1] = test system: IL-6 (THP-1 cells); experiment: Inhibition of IL-6 in LPS-stimulated THP-1 human monocyte cells (HTRF); settings: for inhibition at 10 µM: IL-6 assay in LPS-stimulated THP-1 cells, given only where EC50 >10 μM, meaning not given (top concentration 10 μM), read-out: percentage given in parentheses after EC50 >10; for EC50: inhibition of IL-6 in LPS-stimulated THP-1 cells, HTRF, 10-point dose-response starting from 10 μM
# In short: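 Readout is the 665/620 nm HTRF ratio for secreted IL-6, normalized to DMSO wells, with EC50 from a variable-slope four-parameter fit, or % inhibition at 10 μM when above 10 μM. Cells (1% FBS, 24 h beforehand) got compound for 2 h, then LPS 500 ng/mL for 22 h at 37° C; top dose 10 μM, 0.1% DMSO.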
# [2] = test system: Wnt activity (Sp5-Luc reporter, TCF/LEF binding sites) in SW480 colon carcinoma cells; experiment: Screening assay for Wnt activity: Sp5-Luc reporter gene assay in stably transduced SW480 cells; settings: Homo sapiens; for inhibition at 10 µM: read-out: percent inhibition at 10 μM (given for EC50 of >10 μM); for EC50: overnight incubation
# In short: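 Luminescence (BrightGlo) was normalised to DMSO-only wells and fitted with a four-parameter variable-slope model for EC50; beyond 10 μM, % inhibition at 10 μM is given. Stable Sp5-Luc SW480 reporter cells, 4,000/well in 1% FBS, were exposed overnight at 37 °C to compounds, top 10 μM, 1:3 dilutions, 0.1% DMSO.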
# [3] = test system: SW480 colon cancer cells; experiment: Cell viability assay (CellTiter-Blue) in SW480 colon cancer cells; settings: Homo sapiens, 96 h, four days; for inhibition at 10 µM: read-out: percent inhibition at 10 μM (given for EC50 of >10 μM); for EC50: CellTiter-Blue
# In short: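 Four-day viability readout in SW480 cells: compound at 0.0045–10 μM (1:3 series), DMSO controls in eight replicates, CellTiter-Blue fluorescence after ~3 h. Values are regression-derived EC50s, or percent inhibition at 10 μM when EC50 exceeds 10 μM.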
SMILES,EC50 [1] [nM],EC50 [2] [nM],EC50 [3] [nM],inhibition at 10 µM [1] [%],inhibition at 10 µM [2] [%],inhibition at 10 µM [3] [%]
"Cc1ccncc1-c1cc2c(-c3cc4c(-c5ccncc5)cccc4[nH]3)n[nH]c2cn1 [Compound 117, 5-(4-Methylpyridin-3-yl)-3-(4-(pyridin-4-yl)-1H-indol-2-yl)-1H-pyrazolo [3,4-c]pyridine]",> 10000,> 10000,> 10000,53,43.1,16.6
"CC(C)(C)C(=O)Nc1cncc(-c2cc3c(-c4cc5c(-c6ccncc6)cccc5[nH]4)n[nH]c3cn2)c1 [Compound 120, N-(5-(3-(4-(Pyridin-4-yl)-1H-indol-2-yl)-1H-pyrazolo[3,4-c]pyridin-5-yl)pyridin-3-yl)pivalamide]",2500,194,> 10000,–,–,32.2
"CC(C)(C)CC(=O)Nc1cncc(-c2cc3c(-c4cc5c(-c6ccncc6)cccc5[nH]4)n[nH]c3cn2)c1 [Compound 128, 3,3-Dimethyl-N-(5-(3-(4-(pyridin-4-yl)-1H-indol-2-yl)-1H-pyrazolo[3,4-c]pyridin-5-yl)pyridin-3-yl)butanamide]",> 10000,> 10000,> 10000,0,46.5,14
"c1cc(-c2ccncc2)c2cc(-c3n[nH]c4cnc(-c5cncnc5)cc34)[nH]c2c1 [Compound 139, 3-(4-(Pyridin-4-yl)-1H-indol-2-yl)-5-(pyrimidin-5-yl)-1H-pyrazolo[3,4-c]pyridine]",> 10000,1230,> 10000,3,–,15.5
"Cc1ccncc1-c1cc2c(-c3cc4c(-c5ccccn5)cccc4[nH]3)n[nH]c2cn1 [Compound 145, 5-(4-Methylpyridin-3-yl)-3-(4-(pyridin-2-yl)-1H-indol-2-yl)-1H-pyrazolo [3,4-c]pyridine]",2830,567,814,–,–,–
"CN(C)Cc1cncc(-c2cc3c(-c4cc5c(-c6ccccn6)cccc5[nH]4)n[nH]c3cn2)c1 [Compound 153, N,N-Dimethyl-1-(5-(3-(4-(pyridin-2-yl)-1H-indol-2-yl)-1H-pyrazolo[3,4-c]pyridin-5-yl)pyridin-3-yl)methanamine]",989,711,2060,–,–,–
"CCCCC(=O)Nc1cncc(-c2cc3c(-c4cc5c(-c6ccccn6)cccc5[nH]4)n[nH]c3cn2)c1 [Compound 159, N-(5-(3-(4-(Pyridin-2-yl)-1H-indol-2-yl)-1H-pyrazolo[3,4-c]pyridin-5-yl)pyridin-3-yl)pentanamide]",1560,3480,2810,–,–,–
"O=C(Nc1cncc(-c2cc3c(-c4cc5c(N6CCCCC6)cccc5[nH]4)n[nH]c3cn2)c1)C1CC1 [Compound 188, N-(5-(3-(4-(Piperidin-1-yl)-1H-indol-2-yl)-1H-pyrazolo[3,4-c]pyridin-5-yl)pyridin-3-yl)cyclopropanecarboxamide]",4960,2420,> 10000,–,–,25.3
"FC1(F)CCN(Cc2cncc(-c3cc4c(-c5cc6c(N7CCCCC7)cccc6[nH]5)n[nH]c4cn3)c2)C1 [Compound 194, 5-(5-((3,3-Difluoropyrrolidin-1-yl)methyl)pyridin-3-yl)-3-(4-(piperidin-1-yl)-1H-indol-2-yl)-1H-pyrazolo[3,4-c]pyridine]",> 10000,1830,6210,0,–,–
"O=C(Nc1cncc(-c2cc3c(-c4cc5ccccc5[nH]4)n[nH]c3cn2)c1)c1ccccc1 [Compound 263, N-(5-(3-(1H-Indol-2-yl)-1H-pyrazolo[3,4-c]pyridin-5-yl)pyridin-3-yl) benzamide]",1190,199,4920,–,–,–
"CC(C)(C)CC(=O)Nc1cncc(-c2cc3c(-c4cc5ccccc5[nH]4)n[nH]c3cn2)c1 [Compound 268, N-(5-(3-(1H-Indol-2-yl)-1H-pyrazolo[3,4-c]pyridin-5-yl)pyridin-3-yl)-3,3-dimethylbutanamide]",> 10000,615,> 10000,25.1,–,4.5
"c1cc(-c2ccoc2)c2cc(-c3n[nH]c4cnc(-c5cncc(CN6CCCCC6)c5)cc34)[nH]c2c1 [Compound 323, 3-(4-(Furan-3-yl)-1H-indol-2-yl)-5-(5-(piperidin-1-ylmethyl)pyridin-3-yl)-1H-pyrazolo[3,4-c]pyridine]",3490,2770,2340,–,–,–
"CN(C)CCNc1cc(F)cc(-c2cccc3[nH]c(-c4n[nH]c5cnc(-c6ccccn6)cc45)cc23)c1 [Compound 476, N^1-(3-Fluoro-5-(2-(5-(pyridin-2-yl)-1H-pyrazolo[3,4-c]pyridin-3-yl)-1H-indol-4-yl)phenyl)-N^2,N^2-dimethylethane-1,2-diamine]",1560,3750,2860,–,–,–
"Cc1ccncc1-c1cc2c(-c3cc4c(-c5cc(F)cc(CNS(C)(=O)=O)c5)cccc4[nH]3)n[nH]c2cn1 [Compound 481, N-(3-Fluoro-5-(2-(5-(4-methylpyridin-3-yl)-1H-pyrazolo[3,4-c]pyridin-3-yl)-1H-indol-4-yl)benzyl)methanesulfonamide]",1180,195,1930,–,–,–

# Further molecules by falling EC50 [1], results first:
EC50 [1] [nM],EC50 [2] [nM],EC50 [3] [nM],SMILES,inhibition at 10 µM [1] [%],inhibition at 10 µM [2] [%],inhibition at 10 µM [3] [%]
967,1970,> 10000,CN1CCN(c2cccc3[nH]c(-c4n[nH]c5cnc(-c6cncc(NC(=O)C7CCC7)c6)cc45)cc23)CC1 [Compound 245],–,–,64.6
856,1260,1480,"CCNCc1cncc(-c2cc3c(-c4cc5c(-c6cc(F)cc(NCCN(C)C)c6)cccc5[nH]4)n[nH]c3cn2)c1 [Compound 454, N^1-(3-(2-(5-(5-((Ethylamino)methyl)pyridin-3-yl)-1H-pyrazolo[3,4-c]pyridin-3-yl)-1H-indol-4-yl)-5-fluorophenyl)-N^2,N^2-dimethylethane-1,2-diamine]",–,–,–
753,700,1950,CC(C)C(=O)Nc1cncc(-c2cc3c(-c4cc5c(N6CCN(C)CC6)cccc5[nH]4)n[nH]c3cn2)c1 [Compound 233],–,–,–
657,1310,964,"CN(C)CCNc1cc(F)cc(-c2cccc3[nH]c(-c4n[nH]c5cnc(-c6cncc(CN(C)C)c6)cc45)cc23)c1 [Compound 461, N^1-(3-(2-(5-(5-((Dimethylamino)methyl)pyridin-3-yl)-1H-pyrazolo[3,4-c]pyridin-3-yl)-1H-indol-4-yl)-5-fluorophenyl)-N^2,N^2-dimethylethane-1,2-diamine]",–,–,–
549,255,1920,"Nc1cncc(-c2cc3c(-c4cc5c(-c6ccccn6)cccc5[nH]4)n[nH]c3cn2)c1 [Compound 143, 5-(3-(4-(Pyridin-2-yl)-1H-indol-2-yl)-1H-pyrazolo[3,4-c]pyridin-5-yl) pyridin-3-amine]",–,–,–
424,390,1640,"c1ccc2[nH]c(-c3n[nH]c4cnc(-c5cncc(CN6CCCC6)c5)cc34)cc2c1 [Compound 266, 3-(1H-Indol-2-yl)-5-(5-(pyrrolidin-1-ylmethyl)pyridin-3-yl)-1H-pyrazolo [3,4-c]pyridine]",–,–,–
286,386,437,"CN(C)CCNc1cc(F)cc(-c2cccc3[nH]c(-c4n[nH]c5cnc(-c6cncc(NC(=O)C(C)(C)C)c6)cc45)cc23)c1 [Compound 456, N-(5-(3-(4-(3-((2-(Dimethylamino)ethyl)amino)-5-fluorophenyl)-1H-indol-2-yl)-1H-pyrazolo[3,4-c]pyridin-5-yl)pyridin-3-yl)pivalamide]",–,–,–
251,401,> 10000,"O=C(Nc1cncc(-c2cc3c(-c4cc5c(-c6ccncc6)cccc5[nH]4)n[nH]c3cn2)c1)C1CCC1 [Compound 133, N-(5-(3-(4-(Pyridin-4-yl)-1H-indol-2-yl)-1H-pyrazolo[3,4-c]pyridin-5-yl)pyridin-3-yl)cyclobutanecarboxamide]",–,–,45.9
92,635,> 10000,"O=C(Nc1cncc(-c2cc3c(-c4cc5ccccc5[nH]4)n[nH]c3cn2)c1)C1CCCCC1 [Compound 275, N-(5-(3-(1H-Indol-2-yl)-1H-pyrazolo[3,4-c]pyridin-5-yl)pyridin-3-yl) cyclohexanecarboxamide]",–,–,35.4
91,448,659,"CN(C)CCNc1cc(F)cc(-c2cccc3[nH]c(-c4n[nH]c5cnc(-c6cncc(N)c6)cc45)cc23)c1 [Compound 451, N^1-(3-(2-(5-(5-Aminopyridin-3-yl)-1H-pyrazolo[3,4-c]pyridin-3-yl)-1H-indol-4-yl)-5-fluorophenyl)-N^2,N^2-dimethylethane-1,2-diamine]",–,–,–
